In data set [1] the target is T1, Huc (Mycolicibacterium smegmatis, UniProt A0QUM6+A0QUM7).
T1 construct: gene hybA; native host purification, chromosomal N-terminal 2×StrepII tag on HucS, tag kept; 833 kDa oligomer of four HucS2L2 lobes on a HucM tetramer; HucL ~58, HucS ~39, HucM ~18 kDa; with Group 2a [NiFe] hydrogenase large subunit HucL; Huc scaffold and stalk protein HucM
T1 sequence (A0QUM6 2-323): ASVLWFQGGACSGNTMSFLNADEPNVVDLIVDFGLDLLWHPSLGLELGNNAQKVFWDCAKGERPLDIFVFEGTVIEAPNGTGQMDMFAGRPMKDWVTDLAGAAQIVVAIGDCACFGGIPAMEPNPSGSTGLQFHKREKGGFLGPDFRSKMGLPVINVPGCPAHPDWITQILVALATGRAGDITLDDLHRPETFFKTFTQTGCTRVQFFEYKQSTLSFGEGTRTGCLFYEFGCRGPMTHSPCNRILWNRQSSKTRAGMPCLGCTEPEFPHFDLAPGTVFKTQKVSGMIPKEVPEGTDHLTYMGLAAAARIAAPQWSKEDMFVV
T1 sequence (A0QUM7 2-516): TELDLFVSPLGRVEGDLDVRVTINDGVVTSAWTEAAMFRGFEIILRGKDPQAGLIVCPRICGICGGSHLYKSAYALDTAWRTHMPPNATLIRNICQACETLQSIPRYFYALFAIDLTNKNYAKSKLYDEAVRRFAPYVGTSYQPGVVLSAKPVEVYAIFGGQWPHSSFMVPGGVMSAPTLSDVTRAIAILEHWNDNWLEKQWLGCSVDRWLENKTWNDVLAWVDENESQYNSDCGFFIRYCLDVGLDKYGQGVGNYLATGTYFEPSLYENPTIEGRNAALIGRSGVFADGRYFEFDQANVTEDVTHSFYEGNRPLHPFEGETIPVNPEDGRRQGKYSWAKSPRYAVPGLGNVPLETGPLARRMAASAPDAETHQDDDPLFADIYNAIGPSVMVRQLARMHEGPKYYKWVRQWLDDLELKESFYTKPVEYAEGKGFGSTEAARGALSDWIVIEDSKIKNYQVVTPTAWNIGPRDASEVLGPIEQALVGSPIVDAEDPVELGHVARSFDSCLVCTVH
T1 sequence (A0QUM5 1-189 partner): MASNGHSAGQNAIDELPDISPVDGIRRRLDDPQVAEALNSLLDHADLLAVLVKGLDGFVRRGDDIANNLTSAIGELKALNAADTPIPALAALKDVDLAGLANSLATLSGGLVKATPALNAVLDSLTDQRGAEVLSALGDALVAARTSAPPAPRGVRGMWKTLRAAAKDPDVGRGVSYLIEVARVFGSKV
As to the kind of experiment: H2 electrode and gas chromatography of H2 consumption. It counts as biochemical. The settings on record: H2 as donor, 50 mM Tris, 150 mM NaCl, pH 8.0.

For data set [2], the target named is Huc protomer (HucSL heterodimer) (Mycobacterium smegmatis mc2155). Description: cryo-EM structure; single-particle reconstruction of the purified Huc oligomer (2.19 Å overall) and of the individual HucS2L2 lobe (1.52 Å and 1.67 Å).
Data set [3] concerns the molecule itself. The data set is described as above.

With `CC1=CC(=O)c2ccccc2C1=O` [menadione], the “H2 electrode and gas chromatography of H2 consumption” value in data set [1] (200 µM menadione as electron acceptor) was “Huc displayed a much higher maximum velocity with menadione”. As to “Huc protomer (HucSL heterodimer) (complex)”, the stoichiometry N (usually a count of units in the complex or per binding partner) in data set [2] came to 2. As for `COc1cc(-c2ccc(-n3nc(-c4ccccc4)n[n+]3-c3ccc([N+](=O)[O-])cc3)c(OC)c2)ccc1-n1nc(-c2ccccc2)n[n+]1-c1ccc([N+](=O)[O-])cc1` [nitro blue tetrazolium], the “H2 electrode and gas chromatography of H2 consumption” value in data set [1] (200 µM NBT as electron acceptor) is listed as “using nitro blue tetrazolium (NBT) or the quinone analogue menadione as the electron acceptor”.

B1: HucM (MSMEG_2261), scaffold subunit of the Mycobacterium smegmatis hydrogenase Huc (natural protein, Mycobacterium smegmatis mc2155, UniProt A0QUM5 1-189, looked up)
chain: MASNGHSAGQNAIDELPDISPVDGIRRRLDDPQVAEALNSLLDHADLLAVLVKGLDGFVRRGDDIANNLTSAIGELKALNAADTPIPALAALKDVDLAGLANSLATLSGGLVKATPALNAVLDSLTDQRGAEVLSALGDALVAARTSAPPAPRGVRGMWKTLRAAAKDPDVGRGVSYLIEVARVFGSKV
notes: HucM, uncharacterized protein MSMEG_2261 encoded directly upstream of hucS in the huc operon, Mycobacterium smegmatis mc2155; approximately 18 kDa; 188 amino acids printed (residues 80 to 189 are also printed); only residues 20-79 modelled in the cryo-EM map; source: M. smegmatis mc2155 PRC1 HucS-2×StrII, endogenous; in cell lysate and co-purified with HucS (StrepTrap, Superose 6)
Regarding B1, in data set [3], the “stoichiometry N” value stood at 4.

Values taken from PMC10017518, “Structural basis for bacterial energy extraction from atmospheric hydrogen” (Nature, 2023).
